Three compounds from US11564929B2, “Combination therapy with Notch and PI3K/mTOR inhibitors for use in treating cancer” (Eli Lilly and Company, priority 2016, dated 2023) can be followed below.

The test concerns A2780 human ovarian carcinoma. As to the kind of experiment: Human A2780 xenograft tumor growth in athymic nude mice. The format is in vivo. As to the method:
A2780 is a human ovarian cell line (Sigma-Aldrich). The cells are grown in culture media at 37° C. in 5% CO2 with humidity in the atmosphere. Cell culture media for A2780 human ovarian carcinoma is RPMI-1640 (without phenol red) with 2.05 mM L-glutamine, 0.01 mg/ml insulin and 10% fetal bovine serum (EBS) added.
To evaluate in viva efficacy and effect A2780 (2×10^6) cells in a 1:1 Matrigel® mix (0.2 mL volume) are implanted by subcutaneous injection in the hind leg of 6-8 weeks of age athymic nude female mice (Harlan Laboratories). A total of 7 to 10 mice are used for each group. Just before implantation, animals are irradiated ([…]). Mice are fed ad libitum on normal chow. Treatment is initiated with oral administration (gavage) of Compound A or vehicle (1% sodium carboxymethylcellulose (Na-CMC) in 0.25% Tween®-80) or Compound B in 1% hydroxyethyl cellulose (HEC)/0.25% Tween® 80/0.05% Antifoam or their vehicle in 0.2 mL volume when tumor size reached to 150±50 mm^3, in this case after the tumor measurements were taken on study day 9. Compound A was administered at 4 or 8 mg/kg on a Monday, Wednesday and Friday schedule for 4 weeks and Compound B was administered at 15 or 30 mg/kg daily for 28 days. Tumor growth and body weight are monitored over time to evaluate efficacy and signs of toxicity. Bidimensional measurements of tumors are performed twice a week and tumor volumes are calculated based on the following formula: (Tumor Volume)=[(L)×(W2)×(II/6)] where L is mid-axis length and W is mid-axis width. Tumor volume data are transformed to a […] to equalize variance across time and treatment groups. The log volume data are analyzed with a two-way repeated measures analysis of variance by time and treatment using the MIXED™ procedure in SAS™ software (version 8.2). The correlation model for the repeated measures is spatial power. Test Groups are: • 01: Control: 1% HEC/0.25% Tween 80/0.05% Antifoam; 1% CMC/0.25% Tween 80/0.05% Antifoam; • 02: Compound A 8 mg/kg; • 03: Compound B 30 mg/kg; • 04: rapamycin 4 mg/kg; • 05: Compound A 8 mg/kg and Compound B 30 mg/kg; • 06: Compound A 4 mg/kg and Compound B 30 mg/kg; • 07: Compound B 15 mg/kg and Compound A 8 mg/kg; • 08: Compound B 15 mg/kg and Compound A 4 mg/kg; • 09: Compound A 8 mg/kg and rapamycin 4 mg/kg.
Using the repeated measures analysis previously described, a contrast statement is used to test for an interaction effect on study day 36, using the two specific treatments that were combined.

Take `C[C@H](NC(=O)CCC(F)(F)F)C(=O)N[C@@H]1C(=O)N(CCO)c2ncccc2-c2ccccc21` [Compound A, 4,4,4-trifluoro-N-[(1S)-2-[[(7S)-5-(2-hydroxyethyl)-6-oxo-7H-pyrido[2,3-d][3]benzazepin-7-yl]amino]-1-methyl-2-oxo-ethyl]butanamide]: the “Tumor volume, Geometric Mean” value by setting is: (Group 02: Compound A 8 mg/kg oral Mon/Wed/Fri, study day 7 (before first dose)) 121.62 mm^3; (Group 02: Compound A 8 mg/kg oral Mon/Wed/Fri, study day 9 (before first dose)) 109.98 mm^3; (Group 02: Compound A 8 mg/kg oral Mon/Wed/Fri, study day 12) 131.53 mm^3; (Group 02: Compound A 8 mg/kg oral Mon/Wed/Fri, study day 15) 194.78 mm^3; (Group 02: Compound A 8 mg/kg oral Mon/Wed/Fri, study day 19) 408.55 mm^3; (Group 02: Compound A 8 mg/kg oral Mon/Wed/Fri, study day 22) 639.48 mm^3. For the same compound, the “Tumor volume, Geometric Mean” value runs as follows: (Group 02: Compound A 8 mg/kg oral Mon/Wed/Fri, study day 26) 1140.46 mm^3; (Group 02: Compound A 8 mg/kg oral Mon/Wed/Fri, study day 29) 1384.21 mm^3; (Group 02: Compound A 8 mg/kg oral Mon/Wed/Fri, study day 33) 1631.82 mm^3; (Group 02: Compound A 8 mg/kg oral Mon/Wed/Fri, study day 36) 1616.05 mm^3.

With `CO[C@@H](C)Cn1c(=O)n(C)c2cnc3ccc(-c4cncc(C(C)(C)O)c4)cc3c21` [Compound B, 8-[5-(1-hydroxy-1-methylethyl)pyridin-3-yl]-1-[(2S)-2-methoxypropyl]-3-methyl-1,3-dihydro-2H-imidazo[4,5-c]quinolin-2-one], the “Tumor volume, Geometric Mean” value is on record as 149.36 mm^3 (Group 03: Compound B 30 mg/kg oral daily, study day 7 (before first dose)); 118.70 mm^3 (Group 03: Compound B 30 mg/kg oral daily, study day 9 (before first dose)); 138.06 mm^3 (Group 03: Compound B 30 mg/kg oral daily, study day 12); 201.95 mm^3 (Group 03: Compound B 30 mg/kg oral daily, study day 15); 326.33 mm^3 (Group 03: Compound B 30 mg/kg oral daily, study day 19); 488.21 mm^3 (Group 03: Compound B 30 mg/kg oral daily, study day 22). Besides, the “Tumor volume, Geometric Mean” value (Group 03: Compound B 30 mg/kg oral daily, study day 26) turned out to be 776.88 mm^3; the “Tumor volume, Geometric Mean” value (Group 03: Compound B 30 mg/kg oral daily, study day 29) is recorded as 1135.14 mm^3; the “Tumor volume, Geometric Mean” value (Group 03: Compound B 30 mg/kg oral daily, study day 33) is 1527.41 mm^3; the “Tumor volume, Geometric Mean” value (Group 03: Compound B 30 mg/kg oral daily, study day 36) is on record as 1664.20 mm^3.

For the compound `CO[C@H]1C[C@@H]2CC[C@@H](C)[C@@](O)(O2)C(=O)C(=O)N2CCCC[C@H]2C(=O)O[C@H]([C@H](C)C[C@@H]2CC[C@@H](O)[C@H](OC)C2)CC(=O)[C@H](C)/C=C(\C)[C@@H](O)[C@@H](OC)C(=O)[C@H](C)C[C@H](C)/C=C/C=C/C=C/1C` [rapamycin, reference compound], the “Tumor volume, Geometric Mean” value (Group 04: rapamycin 4 mg/kg, study day 7 (before first dose)) was found to be 130.45 mm^3; the “Tumor volume, Geometric Mean” value (Group 04: rapamycin 4 mg/kg, study day 9 (before first dose)) is 100.08 mm^3; the “Tumor volume, Geometric Mean” value (Group 04: rapamycin 4 mg/kg, study day 12) amounted to 130.81 mm^3; the “Tumor volume, Geometric Mean” value (Group 04: rapamycin 4 mg/kg, study day 15) amounted to 215.88 mm^3; the “Tumor volume, Geometric Mean” value (Group 04: rapamycin 4 mg/kg, study day 19) is on record as 428.88 mm^3; the “Tumor volume, Geometric Mean” value (Group 04: rapamycin 4 mg/kg, study day 22) was determined as 786.46 mm^3. Further, the “Tumor volume, Geometric Mean” value (Group 04: rapamycin 4 mg/kg, study day 26) was determined as 1291.64 mm^3; the “Tumor volume, Geometric Mean” value (Group 04: rapamycin 4 mg/kg, study day 29) is listed as 1664.57 mm^3; the “Tumor volume, Geometric Mean” value (Group 04: rapamycin 4 mg/kg, study day 33) is 2136.31 mm^3; the “Tumor volume, Geometric Mean” value (Group 04: rapamycin 4 mg/kg, study day 36) amounted to 2461.81 mm^3.
